Source: US9587171B2, “Ammonium salts of chelating agents and their use in oil and gas field applications” (AKZO NOBEL CHEMICALS INTERNATIONAL B.V., priority 2010, dated 2017)

Test: Descaling efficiency for iron sulfide (FeS) at pH 3.8 as a function of temperature
Type: physicochemical
Details: 20° C., 24 hours, FIG. 4
Method: The Parr bomb was placed in an oven at 90° C. The beaker glass was closed with parafilm. After 24 hours at temperature the samples were filtered by a 0.45 micron filter prior to ICP-ES analysis. The descaling efficiency was calculated from the iron concentration in the liquid and the initial amount of FeS.

SMILES: O=C([O-])CC[C@@H](C(=O)[O-])N(CC(=O)[O-])CC(=O)[O-].[Na+].[Na+].[Na+].[Na+] [sodium GLDA]
- descaling efficiency for FeS at low temperature: dissolved more FeS at low temperature
